Reference: the supplement of paper PMC10307832

Legend:
Assay in all cases: relative viability (nuclei count vs DMSO), 5 days (fraction); higher = more cells survive
IDH-C35 + Navitoclax = compound: Cc1ccccc1C(C(=O)NC1CCCCC1)N(C(=O)Cn1ccnc1C)c1cccc(F)c1 [IDH-C35] + CC1(C)CCC(c2ccc(Cl)cc2)=C(CN2CCN(c3ccc(C(=O)NS(=O)(=O)c4ccc(N[C@H](CCN5CCOCC5)CSc5ccccc5)c(S(=O)(=O)C(F)(F)F)c4)cc3)CC2)C1 [Navitoclax] (partner 0.5 µM)
Method in brief: (§1)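 Medians of duplicate plates are given as relative viability. That measure is the nuclei count in treated wells divided by the count in vehicle wells. Counts were taken on 4× images of lung cancer cell lines in 1536-well plates, 5 days after pin-tool dosing the day after seeding with one drug alone or a fixed anchor-drug dose plus five library-drug doses (not always all listed) in √10 steps.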

IDH-C35 + Tozasertib = compound: Cc1ccccc1C(C(=O)NC1CCCCC1)N(C(=O)Cn1ccnc1C)c1cccc(F)c1 [IDH-C35] + Cc1cc(Nc2cc(N3CCN(C)CC3)nc(Sc3ccc(NC(=O)C4CC4)cc3)n2)n[nH]1 [Tozasertib] (partner 0.1 µM)
Method in brief: as §1

[1] = compound: CC1=C(C(=NN1)C)CC2=C(C3=C(S2)N(C(=O)N(C3=O)C)CC(C)C)C(=O)N4C[C@@H](CO4)O + CC(=O)Nc1cccc(-n2c(=O)n(C3CC3)c(=O)c3c(Nc4ccc(I)cc4F)n(C)c(=O)c(C)c32)c1 [Trametinib] (partner 0.02 µM)
Method in brief: as §1

[2] = compound: CC1=C(C(=NN1)C)CC2=C(C3=C(S2)N(C(=O)N(C3=O)C)CC(C)C)C(=O)N4C[C@@H](CO4)O + CC(C)C[C@H](NC(=O)[C@H](Cc1ccccc1)NC(=O)c1cnccn1)B(O)O [Bortezomib] (partner 0.002 µM)
Method in brief: as §1

## UMC-11
IDH-C35 + Navitoclax; first compound 0.08 µM
  relative viability: 0.298
IDH-C35 + Navitoclax; first compound 0.253 µM
  relative viability: 0.347
IDH-C35 + Navitoclax; first compound 0.8 µM
  relative viability: 0.323
IDH-C35 + Navitoclax; first compound 2.53 µM
  relative viability: 0.32
IDH-C35 + Navitoclax; first compound 8 µM
  relative viability: 0.344
IDH-C35 + Tozasertib; first compound 0.08 µM
  relative viability: 0.199
IDH-C35 + Tozasertib; first compound 0.253 µM
  relative viability: 0.198
IDH-C35 + Tozasertib; first compound 0.8 µM
  relative viability: 0.197
IDH-C35 + Tozasertib; first compound 2.53 µM
  relative viability: 0.198
IDH-C35 + Tozasertib; first compound 8 µM
  relative viability: 0.193
[1]; first compound 0.0025 µM
  relative viability: 0.842
[1]; first compound 0.007906 µM
  relative viability: 0.84
[1]; first compound 0.025 µM
  relative viability: 0.83
[1]; first compound 0.07906 µM
  relative viability: 0.677
[1]; first compound 0.25 µM
  relative viability: 0.993
[2]; first compound 0.0025 µM
  relative viability: 0.667
[2]; first compound 0.007906 µM
  relative viability: 0.189
[2]; first compound 0.025 µM
  relative viability: 0.173
[2]; first compound 0.07906 µM
  relative viability: 0.22
[2]; first compound 0.25 µM
  relative viability: 0.32
